Patent publication US20230017045A1, “PYRIDINE AND PYRIMIDINE CARBOXYLATE HERBICIDES AND METHODS OF USE THEREOF” (Dow AgroSciences LLC, priority 2017, published 2023)

The compounds below were run on test plant species (assay: Post-emergent herbicidal activity test (greenhouse, foliar spray, visual growth reduction)). Conditions: post-emergence, 336 h, ECHCG: barnyardgrass (Echinochloa crus-galli), 140 g ai/ha, 14 days after application, read-out: Visual Growth Reduction (%) 14 Days After Application, ECHCG.
Format: in vivo
Protocol: Post-emergent Test: Seeds or nutlets of the desired test plant species were planted in Sun Gro Metro-Mix® 360 planting mixture, which typically has a pH of 6.0 to 6.8 and an organic matter content of about 30 percent, in plastic pots with a surface area of 64 square centimeters. In some aspects, to ensure good germination and healthy plants, a fungicide treatment and/or other chemical or physical treatment was applied. The plants were grown for 7-21 d in a greenhouse with an approximate 15 h photoperiod which was maintained at 23-29° C. during the day and 22-28° C. during the night. Nutrients and water were added on a regular basis and supplemental lighting was provided with overhead metal halide 1000-Watt lamps as necessary. Plants were used for testing when they reached the first or second true leaf stage. A weighed amount, determined by the highest rate to be tested, of each test compound was placed in a 25 mL glass vial and was dissolved in 4 mL of a 97:3 v/v mixture of acetone and DMSO to obtain concentrated stock solutions. […] The concentrated stock solutions obtained were diluted with 20 mL of an aqueous mixture containing acetone, water, isopropyl alcohol, DMSO, […] crop oil concentrate, and X-77 surfactant in a 48.5:39:10:1.5:1.0:0.02 v/v ratio to obtain spray solutions containing the application rate. Compound requirements are based upon a 12 mL application volume at a rate of 187 liters per hectare (L/ha). Formulated compounds were applied to the plant material with an overhead Mandel track sprayer equipped with […] nozzles calibrated to deliver 187 L/ha over an application area of 0.64 square meters at a spray height of 18 inches (43 cm) above the average plant canopy height. Control plants were sprayed in the same manner with the solvent blank. The treated plants and control plants were placed in a greenhouse as described above and watered by subirrigation to prevent wash-off of the test compounds. After 14 d, the condition of the test plants as compared with that of the nontreated and control plants was determined visually and scored on a scale of 0 to 100 percent where 0 corresponds to no injury and 100 corresponds to complete control. In the reporting of the results, Table A: Percent Growth Reduction Conversion Table was used.

Question: For `COC(=O)c1nc(-c2ccc(OC)nc2)ccc1Cl` [F269, Methyl 5-chloro-6′-methoxy-[2,3′-bipyridine]-6-carboxylate], which pest or weed control at 140 g/ha is on record?
Answer: The pest or weed control at 140 g/ha was 0 to 29%.

Question: Which pest or weed control at 140 g/ha does the source give for `COC(=O)c1nc(-c2cc3c(cc2F)OC(F)(F)O3)c(F)cc1OC` [F336, Methyl 5-fluoro-3-methoxy-6-(2,2,6-trifluorobenzo[d][1,3]dioxol-5-yl)picolinate] here?
Answer: Its pest or weed control at 140 g/ha is 0 to 29%.

Same assay, conditions: post-emergence, 336 h, IPOHE: ivy-leaf morning glory (Ipomoea hederacea), 140 g ai/ha, 14 days after application, read-out: Visual Growth Reduction (%) 14 Days After Application, IPOHE

Question: `COC(=O)c1nc(-c2ccc(OC)nc2)ccc1Cl` [F269, Methyl 5-chloro-6′-methoxy-[2,3′-bipyridine]-6-carboxylate] was tested. Which pest or weed control at 140 g/ha did it give?
Answer: Its pest or weed control at 140 g/ha is 0 to 29%.

Question: Which pest or weed control at 140 g/ha does the source give for `COC(=O)c1nc(-c2cc3c(cc2F)OC(F)(F)O3)c(F)cc1OC` [F336, Methyl 5-fluoro-3-methoxy-6-(2,2,6-trifluorobenzo[d][1,3]dioxol-5-yl)picolinate] here?
Answer: Its pest or weed control at 140 g/ha is 0 to 29%.

Same assay, conditions: post-emergence, 336 h, KCHSC: kochia (Bassia scoparia), 140 g ai/ha, 14 days after application, read-out: Visual Growth Reduction (%) 14 Days After Application, KCHSC

Question: With `COC(=O)c1nc(-c2ccc(OC)nc2)ccc1Cl` [F269, Methyl 5-chloro-6′-methoxy-[2,3′-bipyridine]-6-carboxylate] as the compound, how does the pest or weed control at 140 g/ha read?
Answer: Its pest or weed control at 140 g/ha is 30 to 44%.

Question: With `COC(=O)c1nc(-c2cc3c(cc2F)OC(F)(F)O3)c(F)cc1OC` [F336, Methyl 5-fluoro-3-methoxy-6-(2,2,6-trifluorobenzo[d][1,3]dioxol-5-yl)picolinate] as the compound, how does the pest or weed control at 140 g/ha read?
Answer: Its pest or weed control at 140 g/ha is 0 to 29%.

Same assay, conditions: post-emergence, 336 h, ORYSA: rice (Oryza sativa), 140 g ai/ha, 14 days after application, read-out: Visual Growth Reduction (%) 14 Days After Application, ORYSA

Question: With `COC(=O)c1nc(-c2ccc(OC)nc2)ccc1Cl` [F269, Methyl 5-chloro-6′-methoxy-[2,3′-bipyridine]-6-carboxylate] as the compound, how does the pest or weed control at 140 g/ha read?
Answer: The pest or weed control at 140 g/ha was 0 to 29%.

Question: For `COC(=O)c1nc(-c2cc3c(cc2F)OC(F)(F)O3)c(F)cc1OC` [F336, Methyl 5-fluoro-3-methoxy-6-(2,2,6-trifluorobenzo[d][1,3]dioxol-5-yl)picolinate], which pest or weed control at 140 g/ha is on record?
Answer: The pest or weed control at 140 g/ha was 0 to 29%.

Same assay, conditions: post-emergence, 336 h, SETFA: giant foxtail (Setaria faberi), 140 g ai/ha, 14 days after application, read-out: Visual Growth Reduction (%) 14 Days After Application, SETFA

Question: How did the pest or weed control at 140 g/ha turn out when `COC(=O)c1nc(-c2ccc(OC)nc2)ccc1Cl` [F269, Methyl 5-chloro-6′-methoxy-[2,3′-bipyridine]-6-carboxylate] was run?
Answer: Its pest or weed control at 140 g/ha is 0 to 29%.

Question: `COC(=O)c1nc(-c2cc3c(cc2F)OC(F)(F)O3)c(F)cc1OC` [F336, Methyl 5-fluoro-3-methoxy-6-(2,2,6-trifluorobenzo[d][1,3]dioxol-5-yl)picolinate] was tested. Which pest or weed control at 140 g/ha did it give?
Answer: The pest or weed control at 140 g/ha was 0 to 29%.

Same assay, conditions: post-emergence, 336 h, SORVU: grain sorghum (Sorghum vulgare), 140 g ai/ha, 14 days after application, read-out: Visual Growth Reduction (%) 14 Days After Application, SORVU

Question: With `COC(=O)c1nc(-c2ccc(OC)nc2)ccc1Cl` [F269, Methyl 5-chloro-6′-methoxy-[2,3′-bipyridine]-6-carboxylate] as the compound, how does the pest or weed control at 140 g/ha read?
Answer: The pest or weed control at 140 g/ha was 0 to 29%.

Question: How did the pest or weed control at 140 g/ha turn out when `COC(=O)c1nc(-c2cc3c(cc2F)OC(F)(F)O3)c(F)cc1OC` [F336, Methyl 5-fluoro-3-methoxy-6-(2,2,6-trifluorobenzo[d][1,3]dioxol-5-yl)picolinate] was run?
Answer: The pest or weed control at 140 g/ha was 75 to 84%.

Same assay, conditions: post-emergence, 336 h, STEME: common chickweed (Stellaria media), 140 g ai/ha, 14 days after application, read-out: Visual Growth Reduction (%) 14 Days After Application, STEME

Question: For `COC(=O)c1nc(-c2ccc(OC)nc2)ccc1Cl` [F269, Methyl 5-chloro-6′-methoxy-[2,3′-bipyridine]-6-carboxylate], which pest or weed control at 140 g/ha is on record?
Answer: Its pest or weed control at 140 g/ha is 0 to 29%.

Question: For `COC(=O)c1nc(-c2cc3c(cc2F)OC(F)(F)O3)c(F)cc1OC` [F336, Methyl 5-fluoro-3-methoxy-6-(2,2,6-trifluorobenzo[d][1,3]dioxol-5-yl)picolinate], which pest or weed control at 140 g/ha is on record?
Answer: The pest or weed control at 140 g/ha was 0 to 29%.

Same assay, conditions: post-emergence, 336 h, TRZAS: wheat, spring (Triticum aestivum), 140 g ai/ha, 14 days after application, read-out: Visual Growth Reduction (%) 14 Days After Application, TRZAS

Question: With `COC(=O)c1nc(-c2ccc(OC)nc2)ccc1Cl` [F269, Methyl 5-chloro-6′-methoxy-[2,3′-bipyridine]-6-carboxylate] as the compound, how does the pest or weed control at 140 g/ha read?
Answer: Its pest or weed control at 140 g/ha is 0 to 29%.

Question: Which pest or weed control at 140 g/ha does the source give for `COC(=O)c1nc(-c2cc3c(cc2F)OC(F)(F)O3)c(F)cc1OC` [F336, Methyl 5-fluoro-3-methoxy-6-(2,2,6-trifluorobenzo[d][1,3]dioxol-5-yl)picolinate] here?
Answer: The pest or weed control at 140 g/ha was 30 to 44%.

Same assay, conditions: post-emergence, 336 h, blackgrass (Alopecurus myosuroides), 14 Days After Application, 140 g ai/ha, read-out: Visual Growth Reduction (%) ALOMY

Question: Which pest or weed control at 140 g/ha does the source give for `COC(=O)c1nc(-c2ccc(OC)nc2)ccc1Cl` [F269, Methyl 5-chloro-6′-methoxy-[2,3′-bipyridine]-6-carboxylate] here?
Answer: Its pest or weed control at 140 g/ha is 0 to 29%.

Question: With `COC(=O)c1nc(-c2cc3c(cc2F)OC(F)(F)O3)c(F)cc1OC` [F336, Methyl 5-fluoro-3-methoxy-6-(2,2,6-trifluorobenzo[d][1,3]dioxol-5-yl)picolinate] as the compound, how does the pest or weed control at 140 g/ha read?
Answer: Its pest or weed control at 140 g/ha is 0 to 29%.

Same assay, conditions: post-emergence, 336 h, canada thistle (Cirsium arvense), 14 Days After Application, 140 g ai/ha, read-out: Visual Growth Reduction (%) CIRAR

Question: `COC(=O)c1nc(-c2ccc(OC)nc2)ccc1Cl` [F269, Methyl 5-chloro-6′-methoxy-[2,3′-bipyridine]-6-carboxylate] was tested. Which pest or weed control at 140 g/ha did it give?
Answer: Its pest or weed control at 140 g/ha is 30 to 44%.

Same assay, conditions: post-emergence, 336 h, crabgrass (Digitaria sanguinalis), 14 Days After Application, 140 g ai/ha, read-out: Visual Growth Reduction (%) DIGSA

Question: `COC(=O)c1nc(-c2ccc(OC)nc2)ccc1Cl` [F269, Methyl 5-chloro-6′-methoxy-[2,3′-bipyridine]-6-carboxylate] was tested. Which pest or weed control at 140 g/ha did it give?
Answer: The pest or weed control at 140 g/ha was 0 to 29%.

Question: For `COC(=O)c1nc(-c2cc3c(cc2F)OC(F)(F)O3)c(F)cc1OC` [F336, Methyl 5-fluoro-3-methoxy-6-(2,2,6-trifluorobenzo[d][1,3]dioxol-5-yl)picolinate], which pest or weed control at 140 g/ha is on record?
Answer: Its pest or weed control at 140 g/ha is 60 to 74%.

Same assay, conditions: post-emergence, 336 h, lambsquarters (Chenopodium album), 14 Days After Application, 140 g ai/ha, read-out: Visual Growth Reduction (%) CHEAL

Question: `COC(=O)c1nc(-c2ccc(OC)nc2)ccc1Cl` [F269, Methyl 5-chloro-6′-methoxy-[2,3′-bipyridine]-6-carboxylate] was tested. Which pest or weed control at 140 g/ha did it give?
Answer: Its pest or weed control at 140 g/ha is 0 to 29%.

Question: `COC(=O)c1nc(-c2cc3c(cc2F)OC(F)(F)O3)c(F)cc1OC` [F336, Methyl 5-fluoro-3-methoxy-6-(2,2,6-trifluorobenzo[d][1,3]dioxol-5-yl)picolinate] was tested. Which pest or weed control at 140 g/ha did it give?
Answer: The pest or weed control at 140 g/ha was 30 to 44%.

Same assay, conditions: post-emergence, 336 h, redroot pigweed (Amaranthus retroflexus), 14 Days After Application, 140 g ai/ha, read-out: Visual Growth Reduction (%) AMARE

Question: `COC(=O)c1nc(-c2ccc(OC)nc2)ccc1Cl` [F269, Methyl 5-chloro-6′-methoxy-[2,3′-bipyridine]-6-carboxylate] was tested. Which pest or weed control at 140 g/ha did it give?
Answer: The pest or weed control at 140 g/ha was 0 to 29%.

Question: Which pest or weed control at 140 g/ha does the source give for `COC(=O)c1nc(-c2cc3c(cc2F)OC(F)(F)O3)c(F)cc1OC` [F336, Methyl 5-fluoro-3-methoxy-6-(2,2,6-trifluorobenzo[d][1,3]dioxol-5-yl)picolinate] here?
Answer: The pest or weed control at 140 g/ha was 30 to 44%.

Same assay, conditions: post-emergence, 336 h, wild oat (Avena fatua), 14 Days After Application, 140 g ai/ha, read-out: Visual Growth Reduction (%) AVEFA

Question: `COC(=O)c1nc(-c2ccc(OC)nc2)ccc1Cl` [F269, Methyl 5-chloro-6′-methoxy-[2,3′-bipyridine]-6-carboxylate] was tested. Which pest or weed control at 140 g/ha did it give?
Answer: The pest or weed control at 140 g/ha was 0 to 29%.

Question: Which pest or weed control at 140 g/ha does the source give for `COC(=O)c1nc(-c2cc3c(cc2F)OC(F)(F)O3)c(F)cc1OC` [F336, Methyl 5-fluoro-3-methoxy-6-(2,2,6-trifluorobenzo[d][1,3]dioxol-5-yl)picolinate] here?
Answer: Its pest or weed control at 140 g/ha is 0 to 29%.

Same assay, conditions: post-emergence, 336 h, yellow nutsedge (Cyperus esculentus), 14 Days After Application, 140 g ai/ha, read-out: Visual Growth Reduction (%) CYPES

Question: Which pest or weed control at 140 g/ha does the source give for `COC(=O)c1nc(-c2ccc(OC)nc2)ccc1Cl` [F269, Methyl 5-chloro-6′-methoxy-[2,3′-bipyridine]-6-carboxylate] here?
Answer: Its pest or weed control at 140 g/ha is 0 to 29%.

Question: Which pest or weed control at 140 g/ha does the source give for `COC(=O)c1nc(-c2cc3c(cc2F)OC(F)(F)O3)c(F)cc1OC` [F336, Methyl 5-fluoro-3-methoxy-6-(2,2,6-trifluorobenzo[d][1,3]dioxol-5-yl)picolinate] here?
Answer: The pest or weed control at 140 g/ha was 0 to 29%.
